Publication PMC6385358, “Discovery of ((1,2,4-oxadiazol-5-yl)pyrrolidin-3-yl)ureidyl derivatives as selective non-steroidal agonists of the G-protein coupled bile acid receptor-1” (Scientific Reports, 2019)

What was measured:
Assay type in all cases: cell-based
Conditions in all cases: 10 μM
PPARα = molecular target: T1, PPARα (Homo sapiens, UniProt Q07869); assay: Luciferase reporter specificity assay versus PPARα on HepG2 cells
T1 construct: host or cells: HepG2
T1 sequence (Q07869 1-468): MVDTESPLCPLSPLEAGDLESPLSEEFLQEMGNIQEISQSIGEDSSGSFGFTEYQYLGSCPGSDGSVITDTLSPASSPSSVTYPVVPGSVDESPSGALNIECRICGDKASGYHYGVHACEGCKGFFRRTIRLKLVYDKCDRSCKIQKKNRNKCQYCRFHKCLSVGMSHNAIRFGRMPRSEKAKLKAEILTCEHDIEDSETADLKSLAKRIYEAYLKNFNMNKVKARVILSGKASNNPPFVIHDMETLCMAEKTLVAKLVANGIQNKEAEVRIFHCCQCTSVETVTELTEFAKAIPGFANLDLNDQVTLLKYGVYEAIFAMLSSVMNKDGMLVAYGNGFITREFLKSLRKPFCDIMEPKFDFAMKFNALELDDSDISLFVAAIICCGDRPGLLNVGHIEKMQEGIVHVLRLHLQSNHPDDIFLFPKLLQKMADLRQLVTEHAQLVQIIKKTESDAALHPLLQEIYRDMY
Experimental: (§1) The activity of compounds 1–14 on GPBAR1 was evaluated in a luciferase reporter assay using HEK-293T cells transfected with GPBAR1. The efficacy of tested compounds (Table 1) was measured using taurolithocholic acid (TLCA) as GPBAR1 reference compound[10],[11]. Each compound was tested at the concentration of 10 μM and transactivation activity of TLCA on a cAMP responsive element (CRE) (i.e. TGR5/GPBAR1) was considered equal to 100%. […] Thus, 9 and 10 (Table 1) turned out to be the most promising derivatives considering their low EC50 values and high activity efficacy. To further characterize the pharmacological properties of these compounds, we expanded their in vitro profile to common off-targets for bile acid receptor ligands.
(§2) Figure 3 (A) Dose response curves of compounds 9 and 10 (concentrations ranging from 1 to 50 µM) in luciferase reporter assay. (B) Real-time PCR analysis of mRNA expression of Pro-glucagon in GLUTag cells treated with compounds 9 and 10 at 10 μM, and TLCA used as a positive control (10 μM). Values are normalized to GAPDH and are expressed relative to those of not treated cells (NT) which are arbitrarily settled to 1. The relative mRNA expression is expressed as 2^(−ΔΔCt). […]
(§3) The specificity of compounds 9 and 10 versus PPARα, PPARγ, LXRα, LXRβ, FXR and PXR was determined in luciferase reporter gene assays as previously reported[29],[31].

PPARγ = molecular target: T2, PPARγ (Homo sapiens, UniProt P37231); assay: Luciferase reporter specificity assay versus PPARγ on HepG2 cells
T2 construct: host or cells: HepG2
T2 sequence (P37231 1-505): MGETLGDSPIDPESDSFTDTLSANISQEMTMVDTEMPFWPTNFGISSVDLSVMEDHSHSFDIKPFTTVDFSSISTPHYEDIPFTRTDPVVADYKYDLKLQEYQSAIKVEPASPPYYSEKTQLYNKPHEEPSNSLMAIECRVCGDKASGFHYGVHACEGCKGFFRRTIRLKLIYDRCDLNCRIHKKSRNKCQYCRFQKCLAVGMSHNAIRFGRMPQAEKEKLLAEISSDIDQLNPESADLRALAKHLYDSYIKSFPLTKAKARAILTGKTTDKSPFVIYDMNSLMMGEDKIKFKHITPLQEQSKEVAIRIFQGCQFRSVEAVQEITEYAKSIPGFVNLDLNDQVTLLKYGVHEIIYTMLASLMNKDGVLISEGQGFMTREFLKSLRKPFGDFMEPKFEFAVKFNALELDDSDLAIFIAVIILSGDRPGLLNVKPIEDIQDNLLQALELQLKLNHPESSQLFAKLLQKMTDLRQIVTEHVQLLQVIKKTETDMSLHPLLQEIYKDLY
Experimental: as §1, §2, §3

LXRα = molecular target: T3, LXRα (Homo sapiens, UniProt Q13133); assay: Luciferase reporter specificity assay versus LXRα on HepG2 cells
T3 construct: host or cells: HepG2
T3 sequence (Q13133 1-447): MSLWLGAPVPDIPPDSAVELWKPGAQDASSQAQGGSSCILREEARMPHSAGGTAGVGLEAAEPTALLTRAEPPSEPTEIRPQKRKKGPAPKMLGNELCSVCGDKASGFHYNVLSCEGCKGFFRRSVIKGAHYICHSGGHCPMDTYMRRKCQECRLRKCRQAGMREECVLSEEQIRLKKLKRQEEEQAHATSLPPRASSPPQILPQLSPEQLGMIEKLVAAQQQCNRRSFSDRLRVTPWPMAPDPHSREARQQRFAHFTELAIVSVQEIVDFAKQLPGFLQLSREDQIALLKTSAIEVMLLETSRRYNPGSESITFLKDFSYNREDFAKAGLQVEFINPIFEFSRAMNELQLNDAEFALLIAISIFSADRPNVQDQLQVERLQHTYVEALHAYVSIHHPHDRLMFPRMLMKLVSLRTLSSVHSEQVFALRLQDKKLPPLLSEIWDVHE
Experimental: as §1, §2, §3

FXR = molecular target: T4, FXR (Homo sapiens, UniProt Q96RI1); assay: Luciferase reporter specificity assay versus FXR on HepG2 cells
T4 construct: host or cells: HepG2
T4 sequence (Q96RI1 1-486): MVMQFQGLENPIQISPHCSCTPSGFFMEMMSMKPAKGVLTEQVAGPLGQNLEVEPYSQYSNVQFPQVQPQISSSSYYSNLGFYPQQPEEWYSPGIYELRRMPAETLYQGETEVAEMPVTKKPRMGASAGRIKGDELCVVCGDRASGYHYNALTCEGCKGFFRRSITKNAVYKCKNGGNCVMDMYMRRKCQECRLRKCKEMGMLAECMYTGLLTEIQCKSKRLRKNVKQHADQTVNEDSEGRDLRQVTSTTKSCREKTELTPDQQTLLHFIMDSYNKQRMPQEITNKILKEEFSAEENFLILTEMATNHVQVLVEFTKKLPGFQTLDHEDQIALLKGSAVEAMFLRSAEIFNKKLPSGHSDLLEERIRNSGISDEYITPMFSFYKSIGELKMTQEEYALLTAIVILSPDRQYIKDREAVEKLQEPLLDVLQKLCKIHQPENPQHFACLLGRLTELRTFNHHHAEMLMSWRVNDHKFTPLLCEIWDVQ
Experimental: as §1, §2, §3

O=C(NC1CCCCC1)N[C@@H]1CN[C@H](c2nc(-c3ccccc3)no2)C1 [Compound 10]
unable to induce: PPARα transactivation (PPARα) | PPARγ transactivation (PPARγ) | LXRα transactivation (LXRα) | FXR transactivation (FXR)

O=C(Nc1ccc(Cl)cc1)N[C@@H]1CN[C@H](c2nc(-c3ccccc3)no2)C1 [Compound 9]
unable to induce: PPARα transactivation (PPARα) | PPARγ transactivation (PPARγ) | LXRα transactivation (LXRα) | FXR transactivation (FXR)
